Reference: article PMC8270334, “Design, Sustainable Synthesis and Biological Evaluation of a Novel Dual α2A/5-HT7 Receptor Antagonist with Antidepressant-Like Properties” (Molecules, 2021)
Like-named read-outs stand apart in the source and are kept apart here.

Tests used:
human 5-HT7b receptor [1] = molecular target: T1, human 5-HT7b receptor (Homo sapiens, UniProt P34969); assay: radioligand binding, [3H]-5-CT displacement at 5-HT7R in HEK293 cells; conditions: read-out: Ki [nM] ± SEM 5-HT7
T1 construct: expressed in transfected cells; host or cells: HEK293
Method: All experiments were performed using HEK293 cells stably expressing human 5-HT1A, 5-HT6, 5-HT7b, and D2L receptors or CHO-K1 cells with a plasmid containing the human 5-HT2A receptor coding sequence (PerkinElmer, Waltham, MA, USA), according to previously reported procedures. Cells were cultured in 150 cm^2 flasks and, after reaching a 90% confluence, were washed with PBS and the centrifugated (200 g) in PBS containing 0.1 mM EDTA and 1 mM dithiothreitol. Cell pellets were subsequently homogenized (in Ultra Turrax tissue homogenizer) and centrifugated twice (35,000× g for 15 min at 4 °C), with 15 min incubation at 37 °C between the centrifugations. All assays were incubated in dedicated buffers and in a total volume of 200 µL in 96-well microtitre plates for 1 h at 37 °C, except for 5-HT1AR and 5-HT2AR that was incubated for 1 h at room temperature. The process of equilibration is terminated by rapid filtration through Unifilter-96 (PerkinElmer) plates with a 96-well cell harvester and radioactivity retained on the filters was quantified on a Microbeta plate reader (PerkinElmer, USA). For displacement studies, the following assay samples containing the proper radioligand were used: 2.5 nM [^3H]-8-OH-DPAT (PerkinElmer, #NET929001MC) for 5-HT1AR; 1 nM [^3H]-ketanserin (PerkinElmer, #NET791250UC) for 5-HT2AR; 2 nM [^3H]-LSD (PerkinElmer, #NET638250UC) for 5-HT6R; and 0.8 nM [^3H]-5-CT (PerkinElmer, #NET1188U100UC) for 5-HT7R or 2.5 nM [^3H]-raclopride (PerkinElmer, #NET975001MC) for D2LR. Non-specific binding was determined using 10 μM 5-HT for 5-HT1AR and 5-HT7R, 20 μM mianserin for 5-HT2AR, 10 μM methiothepine for 5-HT6R, and 10 μM haloperidol for D2LR. […] Results were expressed as means of at least three separate experiments.

Albino Swiss mice [2] = assay: forced swim test; type: in vivo; conditions: ip, 30 min before test
Method: Adult male Albino Swiss mice (CD-1, 8 weeks old, 25–30 g: Jagiellonian University Medical College, Krakow, Poland) were used in the study. Animals were housed in groups of 8 in a transparent plastic cage (382 × 220 × 150 mm) at room temperature (22 ± 2 °C), on a 12 h light/dark cycle with ad libitum access to food and water. Mice were handled for one week before starting the experimental procedures. The separate groups of animals were used in the forced swim test and in the locomotor studies. All studies were approved by the Institutional Animal Care and Ethics Committee of the Jagiellonian University (approval no.: 80/2015). […] Tested compounds were dissolved with 1% Tween 80. […] The control animals were given ip injections of the 2% DMSO in 1% Tween 80 (vehicle). The volume of vehicle or drug solutions was 10 mL/kg. The experiment was performed on mice according to the method previously described. Mice were forced to swim individually in the glass cylinders (height 25 cm, diameter 10 cm) filled with water at 24 ± 1 °C to a depth of 10 cm and left there for 6 min. Following a 2 min habituation period, total time spent immobile was recorded over the next 4 min. The animal was regarded as immobile when it remained floating passively in the water, making only small movements to keep its head above the water.

Albino Swiss mice [3] = assay: spontaneous locomotor activity; type: in vivo; conditions: ip, doses effective in the FST (6: 4, 8 mg/kg; mirtazapine: 16 mg/kg)
Method: Adult male Albino Swiss mice (CD-1, 8 weeks old, 25–30 g: Jagiellonian University Medical College, Krakow, Poland) were used in the study. Animals were housed in groups of 8 in a transparent plastic cage (382 × 220 × 150 mm) at room temperature (22 ± 2 °C), on a 12 h light/dark cycle with ad libitum access to food and water. Mice were handled for one week before starting the experimental procedures. The separate groups of animals were used in the forced swim test and in the locomotor studies. All studies were approved by the Institutional Animal Care and Ethics Committee of the Jagiellonian University (approval no.: 80/2015).
Tested compounds were dissolved with 1% Tween 80. […] The control animals were given ip injections of the 2% DMSO in 1% Tween 80 (vehicle). The volume of vehicle or drug solutions was 10 mL/kg.
Locomotor activity was recorded with an Opto M3 multichannel activity monitor, photoresistor actometers connected to a counter for the recording of light-beam interruptions (MultiDevice Software v1.3, Columbus Instruments, Columbus, OH, USA). The mice, after being placed into the cages individually, had their activity evaluated between the 2nd and the 6th minute. The chosen time period corresponded with the time interval considered in the FST. Spontaneous locomotor activity was evaluated as the distance travelled plus the movements of climbing by animals.

human 5-HT7b receptor [4] = molecular target: T1, human 5-HT7b receptor; conditions: Figure 1, earlier lead; read-out: Ki (5-HT7R); cited from earlier work

T1 sequence (P34969 1-432): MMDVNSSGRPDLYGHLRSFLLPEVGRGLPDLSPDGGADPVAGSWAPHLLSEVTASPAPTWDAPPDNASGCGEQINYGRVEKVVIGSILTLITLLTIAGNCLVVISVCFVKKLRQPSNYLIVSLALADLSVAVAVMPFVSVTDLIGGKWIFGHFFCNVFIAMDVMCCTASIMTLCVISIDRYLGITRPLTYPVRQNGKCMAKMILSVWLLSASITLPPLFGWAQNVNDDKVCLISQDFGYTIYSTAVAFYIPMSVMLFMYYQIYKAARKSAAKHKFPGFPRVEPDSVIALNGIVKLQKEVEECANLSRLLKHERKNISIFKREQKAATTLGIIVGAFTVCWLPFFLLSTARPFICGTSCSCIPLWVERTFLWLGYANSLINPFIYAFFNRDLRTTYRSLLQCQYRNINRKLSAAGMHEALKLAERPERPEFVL

SMILES | Ki (human 5-HT7b receptor [1]) | further results
CC1(C)Cc2cccc(OCCN3CCC(NS(=O)(=O)c4cccc(Cl)c4)CC3)c2O1 [Compound 7, 3-Chloro-N-{1-[2-(2,2-dimethyl-2,3-dihydrobenzofuran-7-yloxy)ethyl]piperidin-4-yl}benzenesulfonamide] | 64 ± 15 nM | –
COc1ccc(Cl)cc1S(=O)(=O)NC1CCN(CCOc2cccc3c2OC(C)(C)C3)CC1 [Compound 9, 5-Chloro-2-methoxy-N-{1-[2-(2,2-dimethyl-2,3-dihydrobenzofuran-7-yloxy)ethyl]piperidin-4-yl}benzenesulfonamide] | 86 ± 26 nM | –
COc1ccc(OC)c(S(=O)(=O)NC2CCN(CCOc3cccc4c3OC(C)(C)C4)CC2)c1 [Compound 10, 2,5-Dimethoxy-N-{1-[2-(2,2-dimethyl-2,3-dihydrobenzofuran-7-yloxy)ethy]piperidin-4-yl}benzenesulfonamide] | 95 ± 18 nM | –
CN1CCN2c3ncccc3Cc3ccccc3C2C1 (centres unmarked) [Mirtazapine, reference compound] | – | active dose in FST (antidepressant-like effect) (Albino Swiss mice [2]): 16 mg/kg; influence on spontaneous locomotor activity (sedation) (Albino Swiss mice [3]): induced sedation
CC(C)Oc1ccccc1OCCN1CCC(NS(=O)(=O)c2ccc(F)cc2)CC1 [PZ-971] | – | Ki (human 5-HT7b receptor [4]): 21 nM

Now from value to compound, other results behind:

Ki (human 5-HT7b receptor [1]) | SMILES | further results
50 ± 16 nM | CC1(C)Cc2cccc(OCCN3CCC(NS(=O)(=O)c4cccc5ccccc45)CC3)c2O1 [Compound 11, 1-Naphthalene-N-{1-[2-(2,2-dimethyl-2,3-dihydrobenzofuran-7-yloxy)ethyl]piperidin-4-yl}sulfonamide] | –
67 ± 21 nM | CC1(C)Cc2cccc(OCCN3CCC(NS(=O)(=O)c4ccc5ccccc5c4)CC3)c2O1 [Compound 12, 2-Naphthalene-N-{1-[2-(2,2-dimethyl-2,3-dihydrobenzofuran-7-yloxy)ethyl]piperidin-4-yl}sulfonamide] | –
727 ± 65 nM | CC1(C)Cc2cccc(OCCN3CCC(CNS(=O)(=O)c4ccc(F)cc4)CC3)c2O1 [Compound 14, 4-Fluoro-N-({1-[2-(2,2-dimethyl-2,3-dihydrobenzofuran-7-yloxy)ethyl]piperidin-4-yl}methyl)benzenesulfonamide] | –
664 ± 82 nM | CC1(C)Cc2cccc(OCCN3CCC(CNS(=O)(=O)c4cccc(Cl)c4)CC3)c2O1 [Compound 15, 3-Chloro-N-({1-[2-(2,2-dimethyl-2,3-dihydrobenzofuran-7-yloxy)ethyl]piperidin-4-yl}methyl)benzenesulfonamide] | –
316 ± 73 nM | CC1(C)Cc2cccc(OCCN3CCC(CNS(=O)(=O)c4cc(Cl)ccc4F)CC3)c2O1 [Compound 16] | –
488 ± 70 nM | COc1ccc(Cl)cc1S(=O)(=O)NCC1CCN(CCOc2cccc3c2OC(C)(C)C3)CC1 [Compound 17, 5-Chloro-2-methoxy-N-({1-[2-(2,2-dimethyl-2,3-dihydrobenzofuran-7-yloxy)ethyl]piperidin-4-yl}methyl)benzenesulfonamide] | –
366 ± 69 nM | CC1(C)Cc2cccc(OCCN3CCC(CNS(=O)(=O)c4cccc5ccccc45)CC3)c2O1 [Compound 18, 1-Naphthalene-N-({1-[2-(2,2-dimethyl-2,3-dihydrobenzofuran-7-yloxy)ethyl]piperidin-4-yl}methyl)sulfonamide] | –
387 ± 58 nM | CC1(C)Cc2cccc(OCCN3CCC(CNS(=O)(=O)c4cncc5ccccc45)CC3)c2O1 [Compound 19, 4-Isoquinoline-N-({1-[2-(2,2-dimethyl-2,3-dihydrobenzofuran-7-yloxy)ethyl]piperidin-4-yl}methyl)sulfonamide] | –
